Measured values: ChEMBL document CHEMBL1759897, “Discovery of non-peptide, small molecule antagonists of α9α10 nicotinic acetylcholine receptors as novel analgesics for the treatment of neuropathic and tonic inflammatory pain” (Bioorg Med Chem Lett, 2011)
The source made the active and inactive calls. The rule behind the calls is not given here.

Legend:
[1] = target: Neuronal acetylcholine receptor; alpha9/alpha10 (Homo sapiens) (UniProt Q9UGM1+Q9GZZ6); assay: Antagonist activity at alpha9/alpha10 nAChR expressed in Xenopus oocyte assessed as inhibition of ACh-gated current response at 100 nM by voltage clamp electrophysiology assay; assay type: functional; design: scale not given: the % may be the effect or the level left
Rattus norvegicus [2] = species: Rattus norvegicus; assay: Analgesic activity in rat inflammatory pain model assessed reduction formalin-induced inflammatory pain; assay type: functional, organism-based
Rattus norvegicus [3] = assay: Analgesic activity in rat chronic constriction nerve injury model of neuropathic pain assessed as reversal of mechanical hyperalgesia measured after repeated dosing for 7 days; assay type: functional, organism-based
Rattus norvegicus [4] = species: Rattus norvegicus; assay: Analgesic activity in rat pain model by tail flick test; assay type: functional, organism-based
Rattus norvegicus [5] = species: Rattus norvegicus; assay: Analgesic activity in rat chronic constriction nerve injury model of neuropathic pain assessed as reversal of mechanical hyperalgesia; assay type: functional, organism-based
[6] = target: Neuronal acetylcholine receptor subunit alpha-7 (Homo sapiens, UniProt P36544); assay: Antagonist activity at alpha7 nAChR expressed in Xenopus oocyte assessed as inhibition of ACh-gated current by voltage clamp electrophysiology assay; assay type: functional
Chain of Neuronal acetylcholine receptor subunit alpha-7 (P36544 whole entry): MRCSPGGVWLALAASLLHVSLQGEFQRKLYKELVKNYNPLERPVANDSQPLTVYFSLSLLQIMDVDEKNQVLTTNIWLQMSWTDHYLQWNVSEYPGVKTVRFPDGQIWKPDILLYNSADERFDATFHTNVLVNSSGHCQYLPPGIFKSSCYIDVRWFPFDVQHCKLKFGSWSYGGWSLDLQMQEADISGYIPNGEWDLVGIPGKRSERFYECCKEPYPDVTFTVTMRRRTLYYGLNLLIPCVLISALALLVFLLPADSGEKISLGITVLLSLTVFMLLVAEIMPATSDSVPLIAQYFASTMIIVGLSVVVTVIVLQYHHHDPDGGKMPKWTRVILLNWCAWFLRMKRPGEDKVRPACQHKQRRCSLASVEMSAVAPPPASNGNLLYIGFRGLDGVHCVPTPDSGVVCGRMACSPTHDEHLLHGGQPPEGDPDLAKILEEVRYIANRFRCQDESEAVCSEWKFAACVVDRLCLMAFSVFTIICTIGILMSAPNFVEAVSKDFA

[7] = target: Neuronal acetylcholine receptor; alpha9/alpha10 (Homo sapiens, UniProt Q9GZZ6+Q9UGM1); assay: Antagonist activity at alpha9/alpha10 nAChR expressed in Xenopus oocyte assessed as inhibition of ACh-gated current by voltage clamp electrophysiology assay; assay type: functional
Chain of Neuronal acetylcholine receptor; alpha9/alpha10 (Q9UGM1 whole entry): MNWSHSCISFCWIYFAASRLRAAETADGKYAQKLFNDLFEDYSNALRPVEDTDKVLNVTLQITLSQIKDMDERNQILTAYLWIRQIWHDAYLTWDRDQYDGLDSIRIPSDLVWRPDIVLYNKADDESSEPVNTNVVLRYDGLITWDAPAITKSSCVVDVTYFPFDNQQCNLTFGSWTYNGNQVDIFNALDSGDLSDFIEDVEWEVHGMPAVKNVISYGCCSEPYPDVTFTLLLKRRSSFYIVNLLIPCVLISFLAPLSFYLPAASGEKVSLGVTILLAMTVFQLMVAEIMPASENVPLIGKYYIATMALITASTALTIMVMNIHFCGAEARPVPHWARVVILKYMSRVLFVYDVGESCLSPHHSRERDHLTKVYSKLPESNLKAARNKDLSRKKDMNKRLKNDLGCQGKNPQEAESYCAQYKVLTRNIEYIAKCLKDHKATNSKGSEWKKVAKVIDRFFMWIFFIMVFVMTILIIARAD
Chain of Neuronal acetylcholine receptor; alpha9/alpha10 (Q9GZZ6 whole entry): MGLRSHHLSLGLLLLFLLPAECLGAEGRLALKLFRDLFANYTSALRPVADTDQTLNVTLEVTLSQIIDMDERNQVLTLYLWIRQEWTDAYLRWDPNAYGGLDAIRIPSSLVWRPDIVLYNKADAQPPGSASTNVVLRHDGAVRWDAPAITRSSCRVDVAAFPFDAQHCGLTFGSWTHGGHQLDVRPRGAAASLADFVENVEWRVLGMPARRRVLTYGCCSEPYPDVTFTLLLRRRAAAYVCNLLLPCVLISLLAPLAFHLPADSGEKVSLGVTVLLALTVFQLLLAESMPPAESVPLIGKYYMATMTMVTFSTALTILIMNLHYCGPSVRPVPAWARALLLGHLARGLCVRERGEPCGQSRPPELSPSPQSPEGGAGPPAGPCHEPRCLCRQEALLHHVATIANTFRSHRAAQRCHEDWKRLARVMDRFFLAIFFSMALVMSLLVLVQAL

[8] = Inhibition of muscle nAChR; assay type: tissue-based, Muscle tissue
[9] = target: Neuronal acetylcholine receptor; alpha3/beta4 (Homo sapiens, UniProt P30926+P32297); assay: Inhibition of alpha3beta4 nAChR; assay type: protein-complex assay
Chain of Neuronal acetylcholine receptor; alpha3/beta4 (P30926 whole entry): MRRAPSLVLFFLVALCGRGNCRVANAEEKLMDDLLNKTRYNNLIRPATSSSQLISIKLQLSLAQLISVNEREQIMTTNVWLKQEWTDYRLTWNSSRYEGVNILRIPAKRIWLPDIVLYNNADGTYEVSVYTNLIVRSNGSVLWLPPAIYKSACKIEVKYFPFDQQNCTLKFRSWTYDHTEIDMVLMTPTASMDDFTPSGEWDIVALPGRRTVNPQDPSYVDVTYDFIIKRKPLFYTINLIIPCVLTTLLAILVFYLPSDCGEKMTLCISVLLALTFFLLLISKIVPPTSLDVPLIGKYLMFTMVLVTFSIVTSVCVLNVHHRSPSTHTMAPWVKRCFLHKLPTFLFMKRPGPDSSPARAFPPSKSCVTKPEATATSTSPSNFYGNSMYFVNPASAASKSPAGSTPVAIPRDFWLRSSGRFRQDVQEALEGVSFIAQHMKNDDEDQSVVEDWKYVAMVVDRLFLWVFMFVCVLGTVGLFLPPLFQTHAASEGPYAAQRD
Chain of Neuronal acetylcholine receptor; alpha3/beta4 (P32297 whole entry): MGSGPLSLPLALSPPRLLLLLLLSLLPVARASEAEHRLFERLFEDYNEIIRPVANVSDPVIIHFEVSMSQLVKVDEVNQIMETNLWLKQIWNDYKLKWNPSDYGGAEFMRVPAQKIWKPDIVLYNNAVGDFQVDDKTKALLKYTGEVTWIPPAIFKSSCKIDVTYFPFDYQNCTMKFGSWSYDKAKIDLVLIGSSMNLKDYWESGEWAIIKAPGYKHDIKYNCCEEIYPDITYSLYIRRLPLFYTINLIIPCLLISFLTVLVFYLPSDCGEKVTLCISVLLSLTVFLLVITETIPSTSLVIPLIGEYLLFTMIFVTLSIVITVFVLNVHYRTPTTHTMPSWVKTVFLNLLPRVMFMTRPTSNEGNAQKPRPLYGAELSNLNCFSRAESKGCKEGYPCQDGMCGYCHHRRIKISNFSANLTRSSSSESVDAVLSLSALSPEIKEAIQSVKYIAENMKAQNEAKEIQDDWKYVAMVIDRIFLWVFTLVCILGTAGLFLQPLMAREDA

[10] = target: Neuronal acetylcholine receptor; alpha4/beta2 (Homo sapiens, UniProt P17787+P43681); assay: Inhibition of alpha4beta2 nAChR; assay type: protein-complex assay
Chain of Neuronal acetylcholine receptor; alpha4/beta2 (P17787 whole entry): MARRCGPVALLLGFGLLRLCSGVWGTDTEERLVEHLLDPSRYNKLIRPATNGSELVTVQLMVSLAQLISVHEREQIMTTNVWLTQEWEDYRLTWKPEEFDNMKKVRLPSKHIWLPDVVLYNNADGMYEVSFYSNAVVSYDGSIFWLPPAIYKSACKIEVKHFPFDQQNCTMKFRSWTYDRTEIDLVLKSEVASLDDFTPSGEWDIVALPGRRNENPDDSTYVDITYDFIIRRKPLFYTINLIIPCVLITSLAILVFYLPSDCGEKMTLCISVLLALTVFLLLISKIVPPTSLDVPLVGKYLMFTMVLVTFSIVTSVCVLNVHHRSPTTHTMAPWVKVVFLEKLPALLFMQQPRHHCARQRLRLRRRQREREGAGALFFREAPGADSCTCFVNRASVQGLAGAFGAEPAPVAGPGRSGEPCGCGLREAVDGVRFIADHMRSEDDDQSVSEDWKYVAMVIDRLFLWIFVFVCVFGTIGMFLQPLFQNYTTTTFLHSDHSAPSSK
Chain of Neuronal acetylcholine receptor; alpha4/beta2 (P43681 whole entry): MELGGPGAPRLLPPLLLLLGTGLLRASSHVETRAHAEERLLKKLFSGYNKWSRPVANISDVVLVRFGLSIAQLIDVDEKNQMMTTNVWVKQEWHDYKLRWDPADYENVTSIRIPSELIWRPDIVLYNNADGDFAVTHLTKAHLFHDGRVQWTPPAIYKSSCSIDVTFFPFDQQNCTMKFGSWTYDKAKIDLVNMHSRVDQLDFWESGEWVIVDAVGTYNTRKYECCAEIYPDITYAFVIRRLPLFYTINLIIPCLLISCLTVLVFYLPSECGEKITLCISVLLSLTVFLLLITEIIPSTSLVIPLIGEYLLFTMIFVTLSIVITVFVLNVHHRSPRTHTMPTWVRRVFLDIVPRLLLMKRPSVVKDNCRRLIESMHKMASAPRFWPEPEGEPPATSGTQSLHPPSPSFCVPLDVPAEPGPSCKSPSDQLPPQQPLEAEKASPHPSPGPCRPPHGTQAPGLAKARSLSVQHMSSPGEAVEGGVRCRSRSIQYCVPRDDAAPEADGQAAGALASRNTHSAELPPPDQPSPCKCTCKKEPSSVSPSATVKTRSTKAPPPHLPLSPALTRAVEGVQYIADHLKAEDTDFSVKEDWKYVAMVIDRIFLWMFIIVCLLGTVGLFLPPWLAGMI

| SMILES | Activity [1] | further results |
| --- | --- | --- |
| Cc1cc(C)c[n+](CCCC#Cc2cc(C#CCCC[n+]3cc(C)cc(C)c3)c(C#CCCC[n+]3cc(C)cc(C)c3)cc2C#CCCC[n+]2cc(C)cc(C)c2)c1 | 0.3% |  |
| CCCCc1ccc[n+](CCCCCc2cc(CCCCC[n+]3cccc(CCCC)c3)cc(CCCCC[n+]3cccc(CCCC)c3)c2)c1 | 16.1% |  |
| c1ccc2c(c1)ccc[n+]2CCCCCc1cc(CCCCC[n+]2cccc3ccccc32)cc(CCCCC[n+]2cccc3ccccc32)c1 | 15.9% | Activity (Rattus norvegicus [2]): Active; Activity (Rattus norvegicus [3]): inactive; Activity (Rattus norvegicus [4]): inactive; Activity (Rattus norvegicus [5]): Dose-dependent effect |
| C(#Cc1cc(C#CCCC[n+]2cccc(-c3ccccc3)c2)cc(C#CCCC[n+]2cccc(-c3ccccc3)c2)c1)CCC[n+]1cccc(-c2ccccc2)c1 | 5.5% |  |
| Cc1cc(C)c[n+](CCCC#Cc2ccccc2C#CCCC[n+]2cc(C)cc(C)c2)c1 | 67.6% |  |
| Cc1cc[n+](CCCC#Cc2ccccc2C#CCCC[n+]2ccc(C)c(C)c2)cc1C | 31.3% |  |
| c1ccc(CCCCC[n+]2cccc3ccccc32)c(CCCCC[n+]2cccc3ccccc32)c1 | 10.9% |  |
| c1ccc(-c2ccc[n+](CCCCCc3cc(CCCCC[n+]4cccc(-c5ccccc5)c4)c(CCCCC[n+]4cccc(-c5ccccc5)c4)cc3CCCCC[n+]3cccc(-c4ccccc4)c3)c2)cc1 | 6.5% | IC50 [6]: 0.099 µM; IC50 [7]: 0.0054 µM |
| C(#Cc1cccc(C#CCCC[n+]2cccc3ccccc32)c1)CCC[n+]1cccc2ccccc21 | 41.6% |  |
| C(#Cc1cccc(C#CCCC[n+]2cccc(-c3ccccc3)c2)c1)CCC[n+]1cccc(-c2ccccc2)c1 | 23.2% |  |
| C(#Cc1cc(C#CCCC[n+]2cccc3ccccc32)cc(C#CCCC[n+]2cccc3ccccc32)c1)CCC[n+]1cccc2ccccc21 | 10.5% |  |
| Cc1cc[n+](CCCCc2ccc(CCCC[n+]3ccc(C)c(C)c3)cc2)cc1C | 36.7% |  |
| c1ccc(CCCCC[n+]2ccc3ccccc3c2)c(CCCCC[n+]2ccc3ccccc3c2)c1 | 31.1% |  |
| Cc1cc[n+](CCCC#Cc2cc(C#CCCC[n+]3ccc(C)c(C)c3)cc(C#CCCC[n+]3ccc(C)c(C)c3)c2)cc1C | 61.1% |  |
| Cc1cc[n+](CCCC#Cc2cccc(C#CCCC[n+]3ccc(C)c(C)c3)c2)cc1C | 76.9% |  |
| Cc1cc[n+](CCCCCc2cccc(CCCCC[n+]3ccc(C)c(C)c3)c2)cc1C | 62.7% |  |
| Cc1cc[n+](CCCC#Cc2cc(C#CCCC[n+]3ccc(C)c(C)c3)c(C#CCCC[n+]3ccc(C)c(C)c3)cc2C#CCCC[n+]2ccc(C)c(C)c2)cc1C | 47.4% |  |
| CCCCc1ccc[n+](CCCC#Cc2cc(C#CCCC[n+]3cccc(CCCC)c3)cc(C#CCCC[n+]3cccc(CCCC)c3)c2)c1 | 36.1% |  |
| Cc1cc(C)c[n+](CCCc2ccc(-c3ccc(CCC[n+]4cc(C)cc(C)c4)cc3)cc2)c1 | 114% |  |
| c1ccc2c[n+](CCCCCc3cc(CCCCC[n+]4ccc5ccccc5c4)c(CCCCC[n+]4ccc5ccccc5c4)cc3CCCCC[n+]3ccc4ccccc4c3)ccc2c1 | 17.9% |  |

| SMILES | Activity [1] | further results |
| --- | --- | --- |
| c1cc(CCCCC[n+]2ccc3ccccc3c2)cc(CCCCC[n+]2ccc3ccccc3c2)c1 | 37.5% |  |
| Cc1cc[n+](CCC#Cc2ccc(C#CCC[n+]3ccc(C)c(C)c3)cc2)cc1C | 10.6% |  |
| C(#Cc1cccc(C#CCCC[n+]2ccc3ccccc3c2)c1)CCC[n+]1ccc2ccccc2c1 | 39.7% |  |
| Cc1cc(C)c[n+](CCC#Cc2ccc(C#CCC[n+]3cc(C)cc(C)c3)cc2)c1 | 76.2% |  |
| Cc1cc(C)c[n+](CCCCCc2ccccc2CCCCC[n+]2cc(C)cc(C)c2)c1 | 124% |  |
| Cc1cc[n+](CC#Cc2ccc(-c3ccc(C#CC[n+]4ccc(C)c(C)c4)cc3)cc2)cc1C | 8.1% | Activity (Rattus norvegicus [2]): Active; IC50 [6]: 1.19 µM; IC50 [7]: 0.016 µM; Activity (Rattus norvegicus [3]): inactive; Activity (Rattus norvegicus [4]): inactive; Activity (Rattus norvegicus [5]): Dose-dependent effect |
| C(#Cc1cc(C#CCCC[n+]2ccc3ccccc3c2)c(C#CCCC[n+]2ccc3ccccc3c2)cc1C#CCCC[n+]1ccc2ccccc2c1)CCC[n+]1ccc2ccccc2c1 | 11.6% |  |
| Cc1cc(C)c[n+](CCCCc2ccc(CCCC[n+]3cc(C)cc(C)c3)cc2)c1 | 97.1% |  |
| c1ccc2c[n+](CCCCCc3cc(CCCCC[n+]4ccc5ccccc5c4)cc(CCCCC[n+]4ccc5ccccc5c4)c3)ccc2c1 | 6.9% |  |
| Cc1cc(C)c[n+](CCCC#Cc2cc(C#CCCC[n+]3cc(C)cc(C)c3)cc(C#CCCC[n+]3cc(C)cc(C)c3)c2)c1 | 66% |  |
| c1cc(CCCCC[n+]2cccc3ccccc32)cc(CCCCC[n+]2cccc3ccccc32)c1 | 42.6% |  |
| Cc1cc[n+](CCCCCc2ccccc2CCCCC[n+]2ccc(C)c(C)c2)cc1C | 72% |  |
| Cc1cc[n+](CCCCCc2cc(CCCCC[n+]3ccc(C)c(C)c3)c(CCCCC[n+]3ccc(C)c(C)c3)cc2CCCCC[n+]2ccc(C)c(C)c2)cc1C | 11% |  |
| Cc1cc[n+](CCCCCc2cc(CCCCC[n+]3ccc(C)c(C)c3)cc(CCCCC[n+]3ccc(C)c(C)c3)c2)cc1C | 62.7% |  |
| C(#Cc1ccccc1C#CCCC[n+]1ccc2ccccc2c1)CCC[n+]1ccc2ccccc2c1 | 28% |  |
| Cc1cc(C)c[n+](CCCCCc2cc(CCCCC[n+]3cc(C)cc(C)c3)c(CCCCC[n+]3cc(C)cc(C)c3)cc2CCCCC[n+]2cc(C)cc(C)c2)c1 | 0.6% |  |
| c1ccc(-c2ccc[n+](CCCCCc3cc(CCCCC[n+]4cccc(-c5ccccc5)c4)cc(CCCCC[n+]4cccc(-c5ccccc5)c4)c3)c2)cc1 | 3.84% |  |
| Cc1cc(C)c[n+](CCCCCc2cc(CCCCC[n+]3cc(C)cc(C)c3)cc(CCCCC[n+]3cc(C)cc(C)c3)c2)c1 | 79.8% |  |
| C(#Cc1cc(C#CCCC[n+]2cccc(-c3ccccc3)c2)c(C#CCCC[n+]2cccc(-c3ccccc3)c2)cc1C#CCCC[n+]1cccc(-c2ccccc2)c1)CCC[n+]1cccc(-c2ccccc2)c1 | 0.3% | Activity (Rattus norvegicus [2]): Active; IC50 [8]: 0.12 µM; Activity (Rattus norvegicus [3]): inactive; IC50 [9]: 0.8 µM; IC50 [10]: 3.8 µM; Activity (Rattus norvegicus [4]): inactive; Activity (Rattus norvegicus [5]): Dose-dependent effect |
| Cc1cc[n+](CCCc2ccc(-c3ccc(CCC[n+]4ccc(C)c(C)c4)cc3)cc2)cc1C | 89.3% |  |
